Laboratory results as given in patent US10501460B2, “Heterocyclic compounds and uses thereof” (Plexxikon Inc., priority 2013, dated 2019).

Key:
MV-4-11 = experiment: Oncology cell growth assay MV-4-11 (CellTiter Glo, 72 hours); assay type: cell-based; conditions: Homo sapiens, MV4-11, 72 h; MV-4-11 cell growth inhibitory activity, 3d
Summary of the method: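 MV-4-11 cells (MLL-AF4 AML) exposed 72 h to 8-point 1:3 titration, top final 10 μM, 0.2% DMSO. CellTiter Glo luminescence as cell-number readout, normalized to DMSO controls; pIC50 from four-parameter fit.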

bromodomain = experiment: Bromodomain cell assays of Example 40 (at least one of them); assay type: cell-based; conditions: in at least one of the bromodomain cell assays described in Example 40
Summary of the method: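 Growth inhibition: 3000 MV-4-11, MOLM-13, MM.1S or neuroblastoma cells/well got an 8-point 1:3 series from 10 μM top (0.2% DMSO) for 72 h, then CellTiter-Glo luminescence. Myc reporter: MV-4-11 with E-box firefly luciferase, 24 h exposure, One-Glo luminescence plus CellTiter-Fluo cell count. pIC50 from four-parameter fit.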

SMILES | IC50 (MV-4-11) | IC50 (bromodomain)
Cc1noc(C)c1-c1cnc2c(C#CCO)cn(S(=O)(=O)C3CCCC3)c2c1 [P-0156, 3-[1-cyclopentylsulfonyl-6-(3,5-dimethylisoxazol-4-yl)pyrrolo[3,2-b]pyridin-3-yl]prop-2-yn-1-ol] | ≤ 1 µM | < 10 µM
Cc1noc(C)c1-c1cnc2c(C#CCF)cn(S(=O)(=O)C3CCCC3)c2c1 [P-0158, 4-[1-cyclopentylsulfonyl-3-(3-fluoroprop-1-ynyl)pyrrolo[3,2-b]pyridin-6-yl]-3,5-dimethyl-isoxazole] | ≤ 1 µM | < 10 µM
Cc1noc(C)c1-c1cnc2ccn(C(C)c3ccccc3)c2c1 (stereo not drawn) [P-0159, 3,5-dimethyl-4-[1-(1-phenylethyl)pyrrolo[3,2-b]pyridin-6-yl]isoxazole] | ≤ 1 µM | < 10 µM
C=CCn1cc(-c2cn(Cc3ccccc3)c3cc(-c4c(C)noc4C)cnc23)cn1 [P-0160, 4-[3-(1-allylpyrazol-4-yl)-1-benzyl-pyrrolo[3,2-b]pyridin-6-yl]-3,5-dimethyl-isoxazole] | ≤ 1 µM | < 10 µM
Cc1noc(C)c1-c1cnc2c(-c3cnn(C)c3)cn(C(C)c3ccccc3)c2c1 (stereo not drawn) [P-0161, 3,5-dimethyl-4-[3-(1-methylpyrazol-4-yl)-1-(1-phenylethyl)pyrrolo[3,2-b]pyridin-6-yl]isoxazole] | ≤ 1 µM | < 10 µM
Cc1noc(C)c1-c1cnc2c(-c3cn[nH]c3)cn(S(=O)(=O)c3ccccc3)c2c1 [P-0163, 4-[1-(benzenesulfonyl)-3-(1H-pyrazol-4-yl)pyrrolo[3,2-b]pyridin-6-yl]-3,5-dimethyl-isoxazole] | ≤ 1 µM | < 10 µM
Cc1noc(C)c1-c1cnc2[nH]cc(P(C)(=O)c3ccccc3)c2c1 (stereo not drawn) [P-0165, 3,5-dimethyl-4-[3-[methyl(phenyl)phosphoryl]-1H-pyrrolo[2,3-b]pyridin-5-yl]isoxazole] | ≤ 1 µM | < 10 µM
Cc1noc(C)c1-c1cnc2c(-c3cn[nH]c3)cn(S(=O)(=O)C3CCCC3)c2c1 [P-0167, 4-[1-cyclopentylsulfonyl-3-(1H-pyrazol-4-yl)pyrrolo[3,2-b]pyridin-6-yl]-3,5-dimethyl-isoxazole] | ≤ 1 µM | < 10 µM
Cc1noc(C)c1-c1cnc2c(-c3cnn(C4CCCCO4)c3)cn(S(=O)(=O)c3ccccc3)c2c1 (stereo not drawn) [P-0168, 4-[1-(benzenesulfonyl)-3-(1-tetrahydropyran-2-ylpyrazol-4-yl)pyrrolo[3,2-b]pyridin-6-yl]-3,5-dimethyl-isoxazole] | ≤ 1 µM | < 10 µM
Cc1nc(Cn2cc(-c3cnn(C)c3)c3ncc(-c4c(C)noc4C)cc32)cs1 [P-0170, 3,5-dimethyl-4-[3-(1-methylpyrazol-4-yl)-1-[(2-methylthiazol-4-yl)methyl]pyrrolo[3,2-b]pyridin-6-yl]isoxazole] | ≤ 1 µM | < 10 µM
Cc1noc(C)c1-c1cnc2c(-c3cnn(C)c3)cn(Cc3cscn3)c2c1 [P-0171, 3,5-dimethyl-4-[3-(1-methylpyrazol-4-yl)-1-(thiazol-4-ylmethyl)pyrrolo[3,2-b]pyridin-6-yl]isoxazole] | ≤ 1 µM | < 10 µM
Cc1noc(C)c1-c1cnc2c(-c3cnn(C)c3)cn(Cc3ccccc3F)c2c1 [P-0172, 4-[1-[(2-fluorophenyl)methyl]-3-(1-methylpyrazol-4-yl)pyrrolo[3,2-b]pyridin-6-yl]-3,5-dimethyl-isoxazole] | ≤ 1 µM | < 10 µM
Cc1noc(C)c1-c1cnc2c(-c3cnn(C)c3)cn(Cc3c(F)cccc3F)c2c1 [P-0173, 4-[1-[(2,6-difluorophenyl)methyl]-3-(1-methylpyrazol-4-yl)pyrrolo[3,2-b]pyridin-6-yl]-3,5-dimethyl-isoxazole] | ≤ 1 µM | < 10 µM
Cc1noc(C)c1-c1cnc2c(-c3cnn(C(F)F)c3)cn(Cc3ccccc3F)c2c1 [P-0176, 4-[3-[1-(difluoromethyl)pyrazol-4-yl]-1-[(2-fluorophenyl)methyl]pyrrolo[3,2-b]pyridin-6-yl]-3,5-dimethyl-isoxazole] | ≤ 1 µM | < 10 µM
Cc1noc(C)c1-c1cnc2c(c1)c(S(=O)(=O)c1ccccc1)cn2-c1cnn(C)c1 [P-0185, 4-[3-(benzenesulfonyl)-1-(1-methylpyrazol-4-yl)pyrrolo[2,3-b]pyridin-5-yl]-3,5-dimethyl-isoxazole] | ≤ 1 µM | < 10 µM
CCOC(=O)C(c1ccccc1)n1cc(-c2cnn(C)c2)c2ncc(-c3c(C)noc3C)cc21 (stereo not drawn) [P-0186, ethyl 2-[6-(3,5-dimethylisoxazol-4-yl)-3-(1-methylpyrazol-4-yl)pyrrolo[3,2-b]pyridin-1-yl]-2-phenyl-acetate] | ≤ 1 µM | < 10 µM
Cc1noc(C)c1-c1cnc2c(-c3cnn(C)c3)cn(C(CF)c3ccccc3)c2c1 (stereo not drawn) [P-0187, 4-[1-(2-fluoro-1-phenyl-ethyl)-3-(1-methylpyrazol-4-yl)pyrrolo[3,2-b]pyridin-6-yl]-3,5-dimethyl-isoxazole] | ≤ 1 µM | < 10 µM

Next, values leading:

IC50 (MV-4-11) | IC50 (bromodomain) | SMILES
≤ 1 µM | < 10 µM | Cc1noc(C)c1-c1cnc2c(-c3cnn(C)c3)cn(Cc3ccccc3C(F)(F)F)c2c1 [P-0188, 3,5-dimethyl-4-[3-(1-methylpyrazol-4-yl)-1-[[2-(trifluoromethyl)phenyl]methyl]pyrrolo[3,2-b]pyridin-6-yl]isoxazole]
≤ 1 µM | < 10 µM | Cc1noc(C)c1-c1cnc2c(-c3cnn(C)c3)cn(Cc3c(Cl)cccc3Cl)c2c1 [P-0189, 4-[1-[(2,6-dichlorophenyl)methyl]-3-(1-methylpyrazol-4-yl)pyrrolo[3,2-b]pyridin-6-yl]-3,5-dimethyl-isoxazole]
≤ 1 µM | < 10 µM | Cc1noc(C)c1-c1cnc2c(-c3cnn(C)c3)cn(Cc3cc(F)ccc3Cl)c2c1 [P-0190, 4-[1-[(2-chloro-5-fluoro-phenyl)methyl]-3-(1-methylpyrazol-4-yl)pyrrolo[3,2-b]pyridin-6-yl]-3,5-dimethyl-isoxazole]
≤ 1 µM | < 10 µM | Cc1noc(C)c1-c1cnc2c(-c3cnn(C)c3)cn(C(CO)c3ccccc3)c2c1 (stereo not drawn) [P-0192, 2-[6-(3,5-dimethylisoxazol-4-yl)-3-(1-methylpyrazol-4-yl)pyrrolo[3,2-b]pyridin-1-yl]-2-phenyl-ethanol]
≤ 1 µM | < 10 µM | Cc1noc(C)c1-c1cnc2c(-c3cnn(C)c3)cn(Cc3ccccc3Cl)c2c1 [P-0193, 4-[1-[(2-chlorophenyl)methyl]-3-(1-methylpyrazol-4-yl)pyrrolo[3,2-b]pyridin-6-yl]-3,5-dimethyl-isoxazole]
≤ 1 µM | < 10 µM | Cc1noc(C)c1-c1cnc2c(-c3cnn(C)c3)cn(Cc3ccccc3OC(F)(F)F)c2c1 [P-0194, 3,5-dimethyl-4-[3-(1-methylpyrazol-4-yl)-1-[[2-(trifluoromethoxy)phenyl]methyl]pyrrolo[3,2-b]pyridin-6-yl]isoxazole]
≤ 1 µM | < 10 µM | Cc1noc(C)c1-c1cnc2c(-c3cnn(C)c3)cn(Cc3cccnc3)c2c1 [P-0195, 3,5-dimethyl-4-[3-(1-methylpyrazol-4-yl)-1-(3-pyridylmethyl)pyrrolo[3,2-b]pyridin-6-yl]isoxazole]
≤ 1 µM | < 10 µM | Cc1noc(C)c1-c1cnc2ccn(C(CC#N)C3CCCC3)c2c1 (stereo not drawn) [P-0196, 3-cyclopentyl-3-[6-(3,5-dimethylisoxazol-4-yl)pyrrolo[3,2-b]pyridin-1-yl]propanenitrile]
≤ 1 µM | < 10 µM | Cc1noc(C)c1-c1cnc2c(-c3cnn(C)c3)cn(C(CC#N)C3CCCC3)c2c1 (stereo not drawn) [P-0197, 3-cyclopentyl-3-[6-(3,5-dimethylisoxazol-4-yl)-3-(1-methylpyrazol-4-yl)pyrrolo[3,2-b]pyridin-1-yl]propanenitrile]
≤ 1 µM | < 10 µM | Cc1noc(C)c1-c1cnc2c(-c3cnn(C)c3)cn(Cc3ccccn3)c2c1 [P-0198, 3,5-dimethyl-4-[3-(1-methylpyrazol-4-yl)-1-(2-pyridylmethyl)pyrrolo[3,2-b]pyridin-6-yl]isoxazole]
≤ 1 µM | < 10 µM | Cc1noc(C)c1-c1cnc2c(-c3cn[nH]c3)cn(C(C)c3ccccc3)c2c1 (stereo not drawn) [P-0199, 3,5-dimethyl-4-[1-(1-phenylethyl)-3-(1H-pyrazol-4-yl)pyrrolo[3,2-b]pyridin-6-yl]isoxazole]
≤ 1 µM | < 10 µM | CCn1cc(-c2cn(C(C)c3ccccc3)c3cc(-c4c(C)noc4C)cnc23)cn1 (stereo not drawn) [P-0200, 4-[3-(1-ethylpyrazol-4-yl)-1-(1-phenylethyl)pyrrolo[3,2-b]pyridin-6-yl]-3,5-dimethyl-isoxazole]
≤ 1 µM | < 10 µM | C=CCn1cc(-c2cn(C(C)c3ccccc3)c3cc(-c4c(C)noc4C)cnc23)cn1 (stereo not drawn) [P-0201, 4-[3-(1-allylpyrazol-4-yl)-1-(1-phenylethyl)pyrrolo[3,2-b]pyridin-6-yl]-3,5-dimethyl-isoxazole]
≤ 1 µM | < 10 µM | COCCn1cc(-c2cn(C(C)c3ccccc3)c3cc(-c4c(C)noc4C)cnc23)cn1 (stereo not drawn) [P-0203, 4-[3-[1-(2-methoxyethyl)pyrazol-4-yl]-1-(1-phenylethyl)pyrrolo[3,2-b]pyridin-6-yl]-3,5-dimethyl-isoxazole]
≤ 1 µM | < 10 µM | Cc1noc(C)c1-c1cnc2c(-c3cnn(C4CCOC4)c3)cn(C(C)c3ccccc3)c2c1 (stereo not drawn) [P-0204, 3,5-dimethyl-4-[1-(1-phenylethyl)-3-(1-tetrahydrofuran-3-ylpyrazol-4-yl)pyrrolo[3,2-b]pyridin-6-yl]isoxazole]
≤ 1 µM | < 10 µM | Cc1nn(C)cc1-c1cn(C(C)c2ccccc2)c2cc(-c3c(C)noc3C)cnc12 (stereo not drawn) [P-0205, 4-[3-(1,3-dimethylpyrazol-4-yl)-1-(1-phenylethyl)pyrrolo[3,2-b]pyridin-6-yl]-3,5-dimethyl-isoxazole]
